What was measured:
[1] = system: SNB-19 glioblastoma cells; assay: MTT cytotoxicity assay, SNB-19; format: cell-based; details: Homo sapiens, 72 h incubation, mean ± SEM of three experiments, read-out: Cytotoxicity (GI50) against SNB-19
Outline: (§1)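 Cells grown in RPMI-1640 with 10% embryonic calf serum at 37 °C, 5% CO2, exposed to DMSO-dissolved compounds for 72 h, triplicate wells. Viability by MTT (1%, 4 h), DMSO solubilisation, OD at 450 nm; GI50 is concentration halving OD versus untreated control, mean ± SEM of three experiments.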

[2] = system: U-87MG glioblastoma cells; assay: MTT cytotoxicity assay, U-87MG; format: cell-based; details: Homo sapiens, 72 h incubation, mean ± SEM of three experiments, read-out: Cytotoxicity (GI50) against U-87MG
Outline: as §1

T98G glioblastoma cells = assay: MTT cytotoxicity assay, T98G; format: cell-based; details: Homo sapiens, 72 h incubation, mean ± SEM of three experiments, read-out: Cytotoxicity (GI50) against T98G
Outline: as §1

[3] = system: LNCAP prostate cancer cells; assay: MTT cytotoxicity assay, LNCAP; format: cell-based, human; details: Homo sapiens, LNCaP, 72 h, 72 h incubation, mean ± SEM of three experiments, read-out: Cytotoxicity (GI50) against LNCAP
Outline: as §1

[4] = system: DU-145 prostate cancer cells; assay: MTT cytotoxicity assay, DU-145; format: cell-based, human; details: 72 h incubation, mean ± SEM of three experiments, read-out: Cytotoxicity (GI50) against DU-145
Outline: as §1

[5] = system: MT-4 cells of T-cellular human leucosis; assay: MTT cytotoxicity assay, MT-4; format: cell-based; details: MT4, 72 h incubation, mean ± SEM of three experiments, read-out: Cytotoxicity (GI50) against MT-4
Outline: as §1

[6] = system: MDA-MB-231 breast cancer cells; assay: MTT cytotoxicity assay, MDA-MB-231; format: cell-based; details: Homo sapiens, 72 h incubation, mean ± SEM of three experiments, read-out: Cytotoxicity (GI50) against MDA-MB-231
Outline: as §1

[7] = MTT cytotoxicity assay, normal hTERT-immortalized lung fibroblasts; format: cell-based; details: human, hTERT-immortalized lung fibroblasts (normal cell line), 72 h incubation, mean ± SEM of three experiments, read-out: Cytotoxicity (GI50) against hTERT Lung Fibroblasts
Outline: as §1

SNB-19 cells [8] = assay: Cell cycle analysis by flow cytometry (Hoechst 33342), SNB-19; format: cell-based, human; details: SNB-19, treated at GI50 concentration, 24 h
Method: Due to the fact that the implementation of the antitumor potential of the currently existing antitumor agents is carried out by acting on various biological targets, at the next stage we performed the cell cycle analysis and DNA synthesis. Cell cycle analysis of 1-hydroxy-4-phenyl-9,10-anthraquinone 13, 1-hydroxy-4-(2,3-dimethoxyphenyl)-9,10- anthraquinone 16, 1-hydroxy-4-(furan-3-yl)-9,10-anthraquinone 23 and 1-hydroxy- 2-(2,3-dimethoxyphenyl)-9,10-anthraquinone 28 against SNB-19 cells for 24 h produced interesting results. After examining the data for compounds 13 and 16 (Table 3, Figure 4C,D), good number of cells are distributed in S phase, i.e., initiated DNA replication mechanism and also in G0/G1 phase, i.e., initial phase of cell cycle. G1 and G2 are the growth phases in cell cycle analysis, whereas S phase is a synthetic phase wherein DNA replication and DNA synthesis take place. The 2-aryl substituted compound 28 initiated the G0/G1 phase in analogy with doxorubicin and mitomycin. […] Further, compounds play a vital role in controlling the regulation of Sub-G1 and G2/M phases. Some difference in the mechanism of operation of 4-aryl substituted 13,16 and 2-aryl substituted 9,10-anthraquinones 28 has been observed during the progression of cell cycle like: S phase was highly disturbed by 13; G0/G1 phase was highly disturbed by 28. […] This observation can be explained by the influence on the cell repair systems that respond to the intercalation of compounds in DNA. […] Further, mitoxantrone promotes the arrest of S phase of cell cycle.
(§2) For cell cycle analysis cells were seeded in 6-well plates (30,000 per plate) and incubate for adhesion for 24 h. […] Cells were washed with PBS twice, harvested, pelleted and resuspended in 0.5 mL of PBS. For staining the Hoechst 33342 Ready Flow Reagent (Invitrogen) was used according to the instruction. CytoFLEX flow cytometer (Beckman Coulter) was used for analysis. The results are presented as a percentage of cell population standing in different stages of the cell cycle.

SNB-19 cells [9] = assay: DNA synthesis investigation (BrdU/PI flow cytometry), SNB-19; format: cell-based, human; details: SNB-19, treated at GI50 concentration, 24 h, BrdU 30 min
Method: (§3) Cell cycle analysis was performed by Flow Cytometry using BrdU and PI staining [63]. For this experiment cells were seeded in 6-well plates (30,000 per plate) and incubate for adhesion for 24 h. […] For the next step the BrdU stock was added at a final concentration of 30 µM and cells were incubated for 30 min. Cells were washed with PBS, harvested using trypsine and resuspended at 0.3 mL of PBS. Permeabilization of cell membrane was performed as follows: 0.7 mL of ice-cold 100% EtOH was added into each sample, mixed gently and incubate at 4 °C for 1 h. Cells were pelleted and supernatant was removed completely. Then 0.5 mL of 2 N HCl/0.5% Triton X-100 was added and samples were incubated 30 min at room temperature. Cells were pelleted again, supernatant was removed. The pellet was resuspended in 0.5 mL of 0.1 M sodium tetraborate for 2 min and cells were pelleted again, washed with 150 µL of PBS/1% BSA and resuspended in 50 µM 0.5% Tween 20/1% BSA/PBS. […] After that the samples were resuspended in 0.5 mL of PBS containing 10 mg/mL RNAse A and 20 mg/mL PI. Samples were incubated at room temperature for 30 min and analyzed immediately or store at 4 °C. CytoFLEX flow cytometer (Beckman Coulter) was used for analysis. The results are presented as a percentage of cell population standing in DNA synthesis process.

DU-145 cells [10] = assay: Cell cycle analysis by flow cytometry (Hoechst 33342), DU-145; format: cell-based, human; details: DU-145, treated at GI50 concentration, 24 h
Method: We have carried out flow cytometric study of compounds 13, 16 and the isomeric compound 25 (Table 4, Figure 4G,H). Concentrations of 16 and 25 were taken as 5.4 and 14.5 μM, respectively, as per cytotoxic studies (Table 1). After examining the data for 13 (Figure 4G, Table 4), a good number of cells are arrested in Sub-G1, G0/G1 and S phase. Biosynthetic activity is very high during Sub-G1 phase; this is probably achieved by enhancing of apoptosis. The isomeric molecule 25 arrest G0/G1 and S phases, i.e., affecting the DNA synthesis/replication mechanism. Similarly, for 25 a different pattern is observed, i.e., variations at S and G2/M phases were observed, in comparison to the control. […] Some difference in the mechanism of operation of 13 and 25 has been observed during the progression of cell cycle like: Sub-G1 phase was highly disturbed by 13 and S and G0/G1 phases were highly disturbed by 25.
as §2

DU-145 cells [11] = assay: DNA synthesis investigation (BrdU/PI flow cytometry), DU-145; format: cell-based, human; details: DU-145, treated at GI50 concentration, 24 h, BrdU 30 min
Method: as §3

## COc1cccc2c1C(=O)c1c(O)c3c(c(O)c1C2=O)C[C@@](O)(C(=O)CO)C[C@@H]3O[C@H]1C[C@H](N)[C@H](O)[C@H](C)O1 [DOX, Doxorubicin, reference compound]
[1]
  GI50: 7.62 ± 0.69 µM
[2]
  GI50: 6.11 ± 0.15 µM
T98G glioblastoma cells
  GI50: 4.5 ± 0.46 µM
[3]
  GI50: 2.11 ± 0.4 µM
[4]
  GI50: 6.61 ± 0.34 µM
[5]
  GI50: 0.2 ± 0.04 µM
[6]
  GI50: 7.9 ± 0.51 µM
[7]
  GI50 at 72 h: 2.2 ± 0.58 µM
SNB-19 cells [8]
  Population (% Cell Distribution) G0/G1: 49.6%
  Population (% Cell Distribution) G2/M: 19.6%
  Population (% Cell Distribution) S: 23.2%
  Population (% Cell Distribution) Sub-G1: 1.9%
  Population (% Cell Distribution) Super-G2: 5.7%
SNB-19 cells [9]
  Population (% Cell Distribution) DNA Synthesis: 11.81%
DU-145 cells [10]
  Population (% Cell Distribution) G0/G1: 48.8%
  Population (% Cell Distribution) G2/M: 15.9%
  Population (% Cell Distribution) S: 28.1%
  Population (% Cell Distribution) Sub-G1: 0.3%
  Population (% Cell Distribution) Super-G2: 6.8%
DU-145 cells [11]
  Population (% Cell Distribution) DNA Synthesis: 10.76%

— article PMC7321108, “1-Hydroxyanthraquinones Containing Aryl Substituents as Potent and Selective Anticancer Agents” (Molecules, 2020)
